Data taken from article PMC10311661, “In Silico Discovery of 5′-Modified 7-Deoxy-7-ethynyl-4′-thioadenosine as a HASPIN Inhibitor and Its Synergistic Anticancer Effect with the PLK1 Inhibitor” (ACS Central Science, 2023).

Legend:
Test in all cases: KINOMEscan (scanMAX) competition binding at […], less than […] of control
Conditions in all cases: read-out: % of control at 100 nM
[1] = biological target: DYRK1A (Homo sapiens, UniProt Q13627)
[2] = biological target: CLK2 (Homo sapiens, UniProt P49760)
[3] = biological target: T1, MEK5 (Homo sapiens, UniProt Q13163)
T1 construct: gene MAP2K5
T1 sequence (Q13163 1-448): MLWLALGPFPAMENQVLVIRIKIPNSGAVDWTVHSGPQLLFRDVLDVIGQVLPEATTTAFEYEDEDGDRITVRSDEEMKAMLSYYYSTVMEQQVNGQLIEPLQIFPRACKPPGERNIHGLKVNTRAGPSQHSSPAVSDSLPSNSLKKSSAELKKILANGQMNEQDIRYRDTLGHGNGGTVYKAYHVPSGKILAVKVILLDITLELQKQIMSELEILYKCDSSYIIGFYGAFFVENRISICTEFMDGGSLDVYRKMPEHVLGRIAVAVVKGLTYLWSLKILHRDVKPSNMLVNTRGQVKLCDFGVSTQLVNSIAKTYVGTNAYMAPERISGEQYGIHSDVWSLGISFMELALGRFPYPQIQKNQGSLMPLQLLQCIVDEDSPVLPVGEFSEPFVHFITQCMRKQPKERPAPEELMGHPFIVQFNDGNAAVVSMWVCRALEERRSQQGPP

Measured: remaining binding at 0.1 µM

Chain of CLK2 (P49760 whole entry): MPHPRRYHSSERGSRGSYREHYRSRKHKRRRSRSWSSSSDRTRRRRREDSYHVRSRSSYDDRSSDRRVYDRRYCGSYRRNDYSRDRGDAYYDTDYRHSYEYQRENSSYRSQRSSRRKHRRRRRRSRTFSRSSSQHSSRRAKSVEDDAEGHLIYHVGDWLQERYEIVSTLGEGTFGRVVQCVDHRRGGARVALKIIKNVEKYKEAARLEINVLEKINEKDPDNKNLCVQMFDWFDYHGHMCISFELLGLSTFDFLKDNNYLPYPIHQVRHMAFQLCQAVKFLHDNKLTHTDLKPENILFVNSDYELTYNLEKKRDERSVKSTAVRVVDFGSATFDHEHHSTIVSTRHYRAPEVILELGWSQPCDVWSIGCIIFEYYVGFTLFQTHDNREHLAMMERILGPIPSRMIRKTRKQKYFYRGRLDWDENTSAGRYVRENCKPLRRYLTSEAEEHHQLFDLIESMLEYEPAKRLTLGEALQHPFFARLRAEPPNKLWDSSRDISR

C#Cc1cn([C@@H]2S[C@H](CN=[N+]=[N-])[C@@H](O)[C@H]2O)c2ncnc(N)c12 [compound 7, LJ4827]
< 1%: all assays above
